Measured values from ChEMBL document CHEMBL2346538, “Synthesis, cyclooxygenase inhibitory effects, and molecular modeling study of 4-aryl-5-(4-(methylsulfonyl)phenyl)-2-alkylthio and -2-alkylsulfonyl-1H-imidazole derivatives” (Bioorg Med Chem, 2013).

target: T1, Prostaglandin G/H synthase 2 (Homo sapiens, UniProt P35354); assay: Inhibition of COX2 in human blood assessed as TxB2 level after 1 hr by enzyme immunoassay
T1 sequence (P35354 whole entry): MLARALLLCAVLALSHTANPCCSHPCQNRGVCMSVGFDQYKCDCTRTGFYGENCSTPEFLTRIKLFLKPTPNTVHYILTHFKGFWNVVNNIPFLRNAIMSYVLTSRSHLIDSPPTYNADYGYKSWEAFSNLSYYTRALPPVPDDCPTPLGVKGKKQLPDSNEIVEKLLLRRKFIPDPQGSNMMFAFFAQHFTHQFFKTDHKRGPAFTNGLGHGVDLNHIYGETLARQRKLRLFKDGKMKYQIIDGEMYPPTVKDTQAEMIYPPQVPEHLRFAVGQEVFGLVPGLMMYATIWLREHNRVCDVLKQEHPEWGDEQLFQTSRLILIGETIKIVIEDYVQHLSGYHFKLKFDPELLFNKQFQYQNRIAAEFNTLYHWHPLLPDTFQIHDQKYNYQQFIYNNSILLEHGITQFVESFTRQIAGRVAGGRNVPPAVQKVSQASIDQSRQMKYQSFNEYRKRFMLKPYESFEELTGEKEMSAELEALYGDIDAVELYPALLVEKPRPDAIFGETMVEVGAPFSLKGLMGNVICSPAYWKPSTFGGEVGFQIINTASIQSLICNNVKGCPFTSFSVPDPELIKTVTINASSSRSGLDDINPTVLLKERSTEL

Row | SMILES | IC50 [nM]
1 | CS(=O)(=O)c1ccc(-c2[nH]c(S(C)(=O)=O)nc2-c2ccc(F)cc2)cc1 | 280
2 | CS(=O)(=O)c1ccc(-c2[nH]c(S(C)(=O)=O)nc2-c2ccccc2)cc1 | 280
3 | CS(=O)(=O)c1ccc(-c2[nH]c(S(C)(=O)=O)nc2-c2ccc(Cl)cc2)cc1 | 310
4 | CCS(=O)(=O)c1nc(-c2ccccc2)c(-c2ccc(S(C)(=O)=O)cc2)[nH]1 | 240
5 | CCS(=O)(=O)c1nc(-c2ccc(F)cc2)c(-c2ccc(S(C)(=O)=O)cc2)[nH]1 | 310
6 | CCS(=O)(=O)c1nc(-c2ccc(Cl)cc2)c(-c2ccc(S(C)(=O)=O)cc2)[nH]1 | 320

Stronger by IC50, values ahead:

Row | IC50 [nM] | SMILES
7 | 70 | CSc1nc(-c2ccc(F)cc2)c(-c2ccc(S(C)(=O)=O)cc2)[nH]1
8 | 100 | CSc1nc(-c2ccc(Cl)cc2)c(-c2ccc(S(C)(=O)=O)cc2)[nH]1
9 | 50 | CCSc1nc(-c2ccccc2)c(-c2ccc(S(C)(=O)=O)cc2)[nH]1
10 | 80 | CCSc1nc(-c2ccc(F)cc2)c(-c2ccc(S(C)(=O)=O)cc2)[nH]1
11 | 110 | CCSc1nc(-c2ccc(Cl)cc2)c(-c2ccc(S(C)(=O)=O)cc2)[nH]1
12 | 60 | CSc1nc(-c2ccccc2)c(-c2ccc(S(C)(=O)=O)cc2)[nH]1
